Assay results as given in article PMC3194046 (European journal of pharmacology, 2009).

What was measured:
sigma2 receptor = molecular target: T1, sigma2 receptor (Rattus norvegicus, UniProt Q5U3Y7); experiment: Sigma2 receptor binding with [3H]-DTG on rat liver membranes, 100 nM; conditions: 100 nM (+)-pentazocine
T1 sequence (Q5U3Y7 1-176): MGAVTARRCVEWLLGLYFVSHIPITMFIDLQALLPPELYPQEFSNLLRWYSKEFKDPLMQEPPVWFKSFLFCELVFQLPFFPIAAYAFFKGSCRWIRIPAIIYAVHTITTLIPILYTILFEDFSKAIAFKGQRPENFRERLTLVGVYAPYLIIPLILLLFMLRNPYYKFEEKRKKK

pure sigma1 receptor = pure sigma1 receptor (Cavia porcellus, UniProt Q60492); conditions: for inhibition of [125I]Iodoazidococaine photolabeling: 10 µM compound, 1 nM photoprobe; for relative inhibition of [125I]-Iodoazidococaine photolabeling: compounds at 0.1 µM, 1 µM and 10 µM
Sequence of pure sigma1 receptor (Q60492 whole entry): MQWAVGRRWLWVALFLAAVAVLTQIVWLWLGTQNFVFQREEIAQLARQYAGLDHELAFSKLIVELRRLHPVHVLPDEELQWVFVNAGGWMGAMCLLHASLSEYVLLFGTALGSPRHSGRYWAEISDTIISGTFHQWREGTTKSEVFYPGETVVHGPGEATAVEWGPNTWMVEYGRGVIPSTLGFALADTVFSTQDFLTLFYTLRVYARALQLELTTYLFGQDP

[1] = molecular target: T2, purified guinea pig sigma1 receptor (Cavia porcellus, UniProt Q60492); experiment: Competition binding of [3H]-; conditions: for inhibition of [3H]-(+)-pentazocine binding to the sigma1 receptor: Fig. 2A, 2B
T2 sequence (Q60492 whole entry): as above

dopamine (D2) receptor = conditions: ref Kumagai et al., 2000; cited from earlier work
[2] = molecular target: T2, purified guinea pig sigma1 receptor; conditions: ref Moebius et al., 1997; Ramachandran et al., 2007; cited from earlier work
[3] = molecular target: T3, sigma1 receptor in guinea pig liver membranes (Cavia porcellus, UniProt Q60492); conditions: ref Moebius et al., 1997; Ramachandran et al., 2007; cited from earlier work
T3 sequence (Q60492 whole entry): as above

[4] = molecular target: T3, sigma1 receptor in guinea pig liver membranes; experiment: Saturation equilibrium binding of [3H]-; conditions: saturation binding and Scatchard transformation
sigma1 receptor [5] = molecular target: T4, sigma1 receptor (Cavia porcellus, UniProt Q60492); experiment: Inhibition of [3H]-; assay type: binding; conditions: HEK-293 homogenates S1,SK1; 2 mM ATP, 5 mM MgCl2; concentrations as high as 100 µM
T4 sequence (Q60492 whole entry): as above

[6] = molecular target: T3, sigma1 receptor in guinea pig liver membranes; experiment: Competition binding of [3H]-
sigma1 receptor [7] = molecular target: T4, sigma1 receptor; experiment: Inhibition of [3H]-; assay type: binding

**Q.** For `CCCCCCCCCCCCCCC[C@@H](O)[C@@H](N)CO` [sphinganine], which “affinity for the sigma2 receptor” value (sigma2 receptor) is on record?
**A.** The value was “much lower binding affinity”.

**Q.** With `CCCCCCCCCCCCC/C=C/[C@@H](O)[C@@H](N)COP(=O)(O)O` [sphingosine-1 phosphate] as the compound, how does the “affinity for the sigma2 receptor” value (sigma2 receptor) read?
**A.** Its value is “did not bind”.

**Q.** What about the “inhibition of [125I]Iodoazidococaine photolabeling” value (pure sigma1 receptor) of the same compound?
**A.** Its value is “did not show significant inhibition”.

**Q.** What about the “relative inhibition of [125I]-Iodoazidococaine photolabeling” value (from here on “relative inhibition”) (pure sigma1 receptor) of the same compound?
**A.** Its value is “not as effective”.

**Q.** And the “inhibition of [3H]-(+)-pentazocine binding to the sigma1 receptor” value [1]?
**A.** The value was “failed to do so”.

**Q.** For `CCCCCCC[C@@H]1CC[C@@H](CCCC)N1` [(2R-trans)-2-Butyl-5-heptylpyrrolidine], which “affinity for the dopamine (D2) receptor” value (dopamine (D2) receptor) is on record?
**A.** The value was “high affinity”.

**Q.** With `CCCCCCCCCCCCCN1CC(C)OC(C)C1` (stereo not drawn) [tridemorph] as the compound, how does the “affinity on the pure sigma1 receptor” value [2] read?
**A.** Its value is “high affinity”.

**Q.** What about the “affinity for the sigma1 receptor in guinea pig liver membranes” value [3] of the same compound?
**A.** The value was “high affinity”.

**Q.** With `CCCCCCCCCCCCC/C=C/[C@H](O)[C@@H](N)CO` [L-threo-sphingosine] as the compound, how does the “fold more potent at the pure sigma1 receptor than the naturally occurring isomer” value ([1]; L-threo compared to naturally occurring isomer) read?
**A.** Its value is “approximately 10 fold”.

**Q.** Which “relative inhibition” value (pure sigma1 receptor) does the source give for ceramide-1 phosphate here?
**A.** Its value is “not as effective”.

**Q.** What about the “inhibition of [3H]-(+)-pentazocine binding to the sigma1 receptor” value [1] of the same compound?
**A.** Its value is “failed to inhibit”.

**Q.** Which results are given for ceramide?
**A.** relative inhibition of [125I]-Iodoazidococaine photolabeling (pure sigma1 receptor): not as effective; inhibition of [3H]-(+)-pentazocine binding to the sigma1 receptor [1]: failed to inhibit

**Q.** For `CCCCCCCCCCCCN` [dodecylamine], which Ki [1] is on record?
**A.** Its Ki is 0.183 ± 0.017 µM.

**Q.** For `CCCCCCCCCCCCC/C=C/[C@@H](O)[C@H](CO)N(C)C` [N, N dimethyl sphingosine], which “affinity for the sigma2 receptor” value (sigma2 receptor) is on record?
**A.** The value was “much lower binding affinity”.

**Q.** And the “inhibition of [125I]Iodoazidococaine photolabeling” value (pure sigma1 receptor)?
**A.** Its value is “inhibition of photolabeling”.

**Q.** What about the “relative inhibition” value (pure sigma1 receptor) of the same compound?
**A.** Its value is “marginally better than D-erythro sphingosine”.

**Q.** With `CCCCCCCCCCCCC/C=C/[C@@H](O)[C@@H](N)CO` [D-erythro-sphingosine] as the compound, how does the “mode of inhibition of [3H]-(+)-pentazocine binding” value [4] read?
**A.** Its value is “simple competitive interaction”.

**Q.** What about the “inhibition of [3H]-(+)-pentazocine binding” value (sigma1 receptor [5]) of the same compound?
**A.** The value was “did not show a significant inhibition”.

**Q.** What about the Ki [6] of the same compound?
**A.** The Ki was 13 ± 3.1 µM.

**Q.** What about the “affinity for the sigma2 receptor” value (sigma2 receptor) of the same compound?
**A.** The value was “much lower binding affinity”.

**Q.** What about the “inhibition of [125I]Iodoazidococaine photolabeling” value (pure sigma1 receptor) of the same compound?
**A.** Its value is “inhibition of photolabeling”.

**Q.** What about the Ki [1] of the same compound?
**A.** The Ki was 0.14 ± 0.02 µM.

**Q.** And the Ki (sigma1 receptor [7])?
**A.** The Ki was 3.6 ± 0.6 µM.
